Earlier results in patent US7674912B2, “Pro-drugs of N-thiazol-2-yl-benzamide derivatives” (priority 2005, dated 2010).
Where two headings read alike, the source gives them in different places.

What was measured:
mice = settings: for total immobility time: mouse tail suspension test
[1] = tested on: unilateral 6-OHDA (6-hydroxydopamine) lesioned mice and rats; settings: elicited by a subthreshold dose of levodopa, unilateral 6-OHDA lesioned mice and rats
[2] = tested on: MPTP treated mice and 6-OHDA-lesioned rats
[3] = tested on: non-human primates treated with MPTP
[4] = mice previously screened for having high immobility time

SMILES	immobility (mice; [4])	contralateral rotations [1]	functional loss of dopaminergic nerve terminals in the striatum [2]	gliosis induced around degenerating neurons [2]	total immobility time (mice)	dyskinesias ([3]; in vivo)	motor impairment induced by MPTP ([3]; non-human primates)	immobility (mice; mice selectively bred for their helplessness)
Nc1nc(NCCc2ccc(O)cc2)nc2nc(-c3ccco3)nn12 [ZM241385, 4-(2-[7-amino-2-(2-furyl)[1,2,4]triazolo[2,3-a][1,3,5]triazin-5-ylamino]-ethyl)phenol]	reduce immobility							
CCn1c(=O)c2c(nc(/C=C/c3ccc(OC)c(OC)c3)n2C)n(CC)c1=O [KW-6002, 8-[(1E)-2-(3,4-dimethoxyphenyl)ethenyl]-1,3-diethyl-3,7-dihydro-7-methyl-1H-purine-2,6-dione]		enhance contralateral rotations	prevented functional loss of dopaminergic nerve terminals in the striatum	prevented gliosis	reduced the total immobility time	without causing dyskinesias	significantly improves motor impairment	
Nc1nc2c(cnn2CCc2ccccc2)c2nc(-c3ccco3)nn12 [SCH58261, 2-(2-furanyl)-7-(2-phenylethyl)-7H-pyrazolo[4,3-e][1,2,4]triazolo[1,5-c]pyrimidin-5-amine]	reduce immobility	enhance contralateral rotations			reduced the total immobility time			reduced immobility
